# Measured values as given in PMC5571359, “Screening the Medicines for Malaria Venture Pathogen Box across Multiple Pathogens Reclassifies Starting Points for Open-Source Drug Discovery” (Antimicrobial Agents and Chemotherapy, 2017).
# Like-named read-outs stand apart in the source and are kept apart here.
# Legend:
# HepG2 = settings: cited from earlier work; for HepG2 PBox CC20 μMc: ref Pbox supporting information
# [1] = system: Plasmodium falciparum 3D7 asexual blood stage; test: microbe, parasite or virus in culture
# HEK293 cells = test: HEK293 resazurin cell cytotoxicity assay; settings: Homo sapiens; for inhibition at 20 µM: HEK293, read-out: HEK % Inhibition 20uM/IC50 Discovery Biology
# [2] = system: NF54-pfs16-LUC-GFP stage IV gametocytes; test: Plasmodium falciparum late stage gametocyte (LSG) image-based assay; format: cell-based; settings: Plasmodium falciparum
# P. falciparum ABS = settings: cited from earlier work; for EC50: ChEMBL Data; for IC50: read-out: Pf 3D7 Pbox IC50
# liver stage = settings: cited from earlier work
# [3] = system: L. donovani MHOM/IN/80/DD8 intracellular amastigotes; test: Leishmania donovani intracellular amastigote assay in THP-1 cells; format: cell-based; settings: Leishmania donovani, THP-1; Discovery Biology; some values carry an asterisk (not explained in the part shown); read-out: L, donovani Discovery Biology IC50 µM
# [4] = system: T. b. brucei 427 bloodstream trypanosomes; test: T. b. brucei resazurin viability assay; format: cell-based, Trypanosoma brucei brucei; settings: Trypanosoma brucei
# [5] = TCMDC, read-out: TCMDC (ref 93) EX50
# [6] = Pf 3D7, ref Pathogen Box supporting information
# [7] = liver stage, ref Pathogen Box supporting information, read-out: LIVER STAGE Pbox IC50
# [8] = read-out: HepG2 PBox CC50 µM, HepG2 CC50, ref Pathogen Box supporting information
# [9] = P. falciparum 3D7, ref PBox supporting information
# [10] = ref Pbox supporting information
# [11] = read-out: HepG2 PBox CC50 µM, ref PBox supporting information
# [12] = NITD, read-out: NITD (ref 94) EC50
# [13] = read-out: HepG2 PBox CC50 µM, HepG2 cytotoxicity, ref PBox supporting information
# [14] = read-out: T b.brucei Discovery Biology IC50
# [15] = 3D7, read-out: Antiplasmodial IC50 (ABS), PBox compounds, P. falciparum 3D7
# [16] = NF54, read-out: Antiplasmodial IC50 (GAM / LSG), PBox compounds, stage IV gametocytes, single determination
# [17] = HEK293, read-out: HEK % Inhibition 20uM/IC50 Discovery Biology (IA)
# [18] = NF54, read-out: Pf Stage IV GAMS Discovery Biology IC50 µM, stage IV gametocytes
smiles,measurement,setting,value
COc1ccc(-c2nn(C(C)C)c3ncnc(N)c23)cc1OC [MMV675993],HepG2 PBox CC20,"HepG2; HepG2, ref PBox supporting information",1600 nM
same,IC50,"[1]; 3D7, read-out: Pf 3D7 Discovery Biology IC50, P. falciparum 3D7 asexual blood stage",1.07 µM
same,inhibition at 20 µM,HEK293 cells,73%
same,IC50,"[2]; NF54, read-out: Pf Stage IV GAMS Discovery Biology IC50, stage IV gametocytes",1.95 µM
Cc1cccc(C(=O)Nc2ccnc(N(C)C3CCN(CC(C)C)CC3)c2)c1 [MMV024829],EC50,P. falciparum ABS; [5],870 nM
same,IC50,P. falciparum ABS; [6],2100 nM
same,IC50,liver stage; [7],> 10000 nM
same,CC50,HepG2,> 10 µM
Cc1nc(-c2cccc(NCc3ccccc3)c2)[nH]c1C [MMV023227],EC50,P. falciparum ABS; [5],860 nM
same,IC50,P. falciparum ABS; [6],1940 nM
same,IC50,liver stage; [7],4590 nM
same,CC50,HepG2; [8],> 10 µM
Cc1ccc(Oc2ccc(NC(=O)CNc3ccccc3N3CCCC3=O)cc2)cc1 [MMV020512],EC50,P. falciparum ABS; [5],370 nM
same,IC50,P. falciparum ABS; [6],480 nM
same,IC50,liver stage; [7],9100 nM
same,CC50,HepG2; [8],9.8 µM
FC(F)(F)c1cccc(-c2nc3c(NCc4ccncc4)nccc3[nH]2)c1 [MMV032967],IC50,P. falciparum ABS; [9],510 nM
same,IC50,liver stage; [10],> 10000 nM
same,CC50,HepG2; [11],> 10 µM
Nc1ccc(C(=O)Nc2ccc(-c3nc4ccccc4o3)cc2)cc1 [MMV007920],EC50,P. falciparum ABS; [12],940 nM
same,IC50,P. falciparum ABS; [6],1550 nM
same,IC50,liver stage; [7],> 10000 nM
same,CC50,HepG2; [8],> 10 µM
O=C(Nc1ccc(C(F)(F)F)c(C(F)(F)F)c1)c1cc(Cl)ccc1O [MMV687807],IC50,[3],5.06 µM
same,CC50,HepG2; [13],0.65 µM
same,IC50,[4]; [14],0.66 µM
same,IC50,"[1]; 3D7, read-out: Pf 3D7 Discovery Biology IC50 µM, P. falciparum 3D7 asexual blood stage, Discovery Biology",1.82 µM
same,IC50,"HEK293 cells; HEK293, read-out: HEK % Discovery Biology IC50 uM",1.99 µM
same,IC50,"[2]; NF54, read-out: Pf Stage IV GAMS Discovery Biology IC50 µM, stage IV gametocytes, Discovery Biology",5.07 µM
Cc1ccc2[nH]c(C3CCCNC3)c(-c3ccncc3)c2c1 (stereo not drawn) [MMV024311],EC50,"P. falciparum ABS; TCMDC set, P. falciparum, read-out: TCMDC (ref 93) EX50",1230 nM
same,CC50,HepG2; [13],12.7 µM
same,IC50,[4]; read-out: T b.brucei Discovery Biology IC50 µM,5.15 µM
same,IC50,[1]; [15],0.75 µM
CCOc1ccccc1NC(C)C(=O)Nc1cc(C(F)(F)F)ccc1N1CCOCC1 (stereo not drawn) [MMV407834],IC50,P. falciparum ABS; [9],420 nM
same,IC50,liver stage; [10],> 10000 nM
same,CC50,HepG2; [11],> 10 µM
COc1cccc(-n2nnnc2S(=O)(=O)Cc2ccccc2)c1 [MMV676388],IC50,[1]; [15],4.93 µM
same,IC50,"[1]; 3D7, read-out: activity against P. falciparum (novel antiplasmodial actives of the tuberculosis set)",4 to 5 µM
same,IC50,[2]; [16],2.99 µM
O=C(NC1CC1)c1ccc(N2CCC(Cc3ccccc3)CC2)nc1 [MMV024397],EC50,P. falciparum ABS; [5],760 nM
same,IC50,P. falciparum ABS; [6],1330 nM
same,IC50,liver stage; [7],1410 nM
same,CC50,HepG2; [8],> 10 µM
COc1cncc(-c2cncc(N3CCN(c4ccncc4)CC3)n2)c1 [MMV085071],EC50,"P. falciparum ABS; P. falciparum, read-out: NITD (ref 94) EC50",80 nM
same,IC50,P. falciparum ABS; [9],100 nM
same,IC50,liver stage; [10],> 7500 nM
same,CC50,HepG2; [11],> 10 µM
c1csc(-c2cnc3sc(NCC4CCOCC4)nn23)c1 [MMV010764],IC50,P. falciparum ABS; [6],1370 nM
same,IC50,liver stage; [7],> 10000 nM
same,CC50,HepG2; [8],> 10 µM
NCC(=O)N1CCn2c(nc(-c3ccccc3)c2Nc2ccc3c(c2)OCO3)C1 [MMV011691],EC50,P. falciparum ABS; [12],160 nM
same,IC50,P. falciparum ABS; [6],640 nM
same,IC50,liver stage; [7],3780 nM
same,CC50,HepG2,> 10 µM
COc1ccc(-c2onc(C(F)(F)F)c2-c2ccc(Cl)cc2)c(O)c1 [MMV688766],IC50,[1]; [15],0.85 µM
same,IC50,HEK293 cells; [17],> 20 µM
same,IC50,[2]; [16],1.31 µM
CN(C)CCNC(=O)N1CCCN(c2ncnc3cc(-c4ccccc4)sc23)CC1 [MMV024195],EC50,P. falciparum ABS; [5],790 nM
same,IC50,P. falciparum ABS; [6],1580 nM
same,IC50,liver stage; [7],1970 nM
same,CC50,HepG2; [8],> 10 µM
c1ccc(-c2[nH]c3ccccc3c2C(c2ccccn2)N2CCCC2)cc1 (stereo not drawn) [MMV688762],HepG2 PBox CC20 μMc,HepG2,1000 nM
same,IC50,HEK293 cells; [17],> 20 µM
same,IC50,[2]; [18],3.16 µM
CS(=O)(=O)c1ccc(C(=O)N(CC2CCCO2)c2nc3ccccc3s2)cc1[N+](=O)[O-] (stereo not drawn) [MMV688761],HepG2 PBox CC20 μMc,HepG2,6900 nM
same,IC50,[4]; [14],3.49 µM
same,IC50,"[1]; 3D7, read-out: Pf 3D7 Discovery Biology IC50 µM, P. falciparum 3D7 asexual blood stage",4.08 µM
same,inhibition at 20 µM,HEK293 cells,42%
same,IC50,[2]; [18],0.9 µM
C[C@]1(O)C[C@@H](c2nc(-c3ccc4ccc(-c5ccccc5)nc4c3)c3c(N)nccn32)C1 [MMV676605],IC50,P. falciparum ABS; [9],> 2000 nM
same,IC50,liver stage; [10],360 nM
same,CC50,HepG2,> 10 µM
